In article PMC10349806 (Nature Communications, 2023):
Values joined by “and” are separate entries in the source; they are usually repeats but may differ in a detail not shown here. Equal entries are not always repeated.

What was measured:
PfCRT variant E271A = target: T1, PfCRT variant E271A (Plasmodium falciparum, UniProt Q9N623, A220S/I356T/K76T/M74I/N326S/N75E/Q271A/R371I); assay: CQ uptake assay, oocytes expressing E271A; format: cell-based
T1 sequence (Q9N623 1-424 M74I/N75E/K76T/A220S/Q271A/N326S/I356T/R371I): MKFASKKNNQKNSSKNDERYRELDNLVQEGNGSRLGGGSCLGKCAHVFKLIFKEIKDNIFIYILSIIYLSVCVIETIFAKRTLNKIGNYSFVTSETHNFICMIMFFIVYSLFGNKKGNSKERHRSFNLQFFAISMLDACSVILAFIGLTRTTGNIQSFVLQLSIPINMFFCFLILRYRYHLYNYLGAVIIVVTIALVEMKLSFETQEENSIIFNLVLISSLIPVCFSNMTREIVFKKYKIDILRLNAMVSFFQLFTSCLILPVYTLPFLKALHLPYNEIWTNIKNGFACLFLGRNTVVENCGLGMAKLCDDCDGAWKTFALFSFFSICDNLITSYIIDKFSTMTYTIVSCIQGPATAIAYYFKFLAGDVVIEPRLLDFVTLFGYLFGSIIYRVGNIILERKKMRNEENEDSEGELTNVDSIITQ
Description: (§1) Site-directed mutagenesis of PfCRT^Dd2 was performed as described using the megaprimer method with overlap extension[21],[54]. The primer pairs used are listed in Supplementary Table 6. Please note that a codon-optimized and oocyte-adapted version of PfCRT^Dd2 was used[22] (Supplementary Fig. 16). The resulting DNA fragment was cloned into the SP64T expression vector and verified by sequencing.
(§2) Oocytes were obtained as described previously. Briefly, adult (>2 years old) female X. laevis frogs (NASCO) were anesthetized in a cooled solution of ethyl 3-amino benzoate methanesulfonate (0.1%, w/v), followed by a surgical removal of parts of the ovary. The ovary lobes were carefully dissected and small pieces of oocytes were incubated in Ca^2+-free ND96 buffer (96 mM NaCl, 2 mM KCl, 1 mM MgCl2 buffered with 5 mM HEPES/NaOH, pH 7.5) supplemented with collagenase D (0.1%, w/v; Roche), BSA (0.5%, w/v), and 9 mm Na2HPO4 at 18 °C for 14-16 h while gentle shaking. After incubation, the oocytes were carefully washed several times with ND96 buffer (96 mM NaCl, 2 mM KCl, 1.8 mM CaCl2, 1 mM MgCl2 buffered with 5 mM HEPES/NaOH, pH 7.5) supplemented with 100 mg l^−1 gentamycin). Defolliculated and healthy-looking stage V-VI oocytes were manually selected for RNA microinjection. The RNA was generated as following: The codon-optimized sequences of PfCRT variants were cloned into the pSP64T expression vector. After vector linearization using the restriction endonucleases BamHI or SalI (New England Biolabs), transcription was performed using the in vitro SP6 mMessage mMachine Kit (Ambion)[34]. The obtained RNA was kept at −80 °C and diluted with nuclease-free water to a concentration of 0.6 μg μl^−1. Precision-bore glass capillary tubes (3.5-inch glass capillaries; Drummond Scientific Co.) were pulled on a vertical puller (P-87 Flaming/Brown micropipette puller, Sutter Instrument Co.), graduated, and placed on a microinjector (Nanoject II Auto-Nanoliter Injector, Drummond Scientific Co.). 50 nl of nuclease-free water alone (control oocytes) or 50 nl of 0.6 μg μl^−1 RNA were injected under stereomicroscopic control. Injected oocytes were incubated for 46–72 h at 18 °C with twice-daily buffer changes before usage in experiments.
Drug uptake assays were performed as described previously[21],[22],[24],[34]. […] Oocytes that were injected with water instead of RNA were analyzed in parallel, representing the uptake of a drug by diffusion and/or endogenous permeation pathways. […] The specific PfCRT-mediated uptake was determined by subtracting the corresponding background value measured in water-injected oocytes from that of PfCRT-expressing oocytes. […]

PfCRT variant E207K = assay: CQ uptake assay, oocytes expressing E207K; format: cell-based, Plasmodium falciparum
Description: as §1, §2
Drug uptake assays were performed as described previously[21],[22],[24],[34]. […] The direction of radio-labeled drug transport is here from the mostly acidic extracellular solution (pH 4.5 or 6.0, as indicated) into the oocyte cytosol (pH ∼ 7.2), which corresponds to the efflux of drug from the acidic digestive vacuole (pH 5.2) into the parasite cytoplasm (pH 7.2). The topology of PfCRT in the oolemma is such that both the N- and C-terminus face the extracellular milieu[3],[22]. In the parasite, the N- and C-terminus face the lumen of the digestive vacuole. CQ uptake kinetics were performed by incubating oocytes in ND96 buffer adjusted to a pH of 4.5, 5.0, 5.5, or 6.0 and supplemented with 50 nM [^3H]CQ and one of 7 different CQ concentrations (10 µM, 50 µM, 100 µM, 200 µM, 300 µM, 400 µM, 500 µM CQ). The reaction was stopped at the 60 min time point, which is in the linear uptake range[22],[34] (Supplementary Fig. 17). For determination of the amount of drug uptake for each oocyte, the reaction medium was removed and the oocytes were washed three times with 2 ml of ice-cold ND96 buffer. Each oocyte was individually transferred to a scintillation vial containing 5% sodium dodecyl sulfate (200 μl) for lysis. The radioactivity of each sample was measured using a liquid scintillation analyzer Tri-Carb 4910 TR (PerkinElmer). Oocytes that were injected with water instead of RNA were analyzed in parallel, representing the uptake of a drug by diffusion and/or endogenous permeation pathways. The resulting value represents the “background“ level of drug accumulation in oocytes (in-depth discussion in[22]). […]

[1] = E207K, 50 µM CQ, 1 h, mean ± SEM

CCN(CC)CCCC(C)Nc1ccnc2cc(Cl)ccc12 (stereo not shown) [CQ, chloroquine]
Activity at pH 4.5 (PfCRT variant E271A; E271A, 50 µM CQ, 1 h, mean ± SEM): 1.01 ± 0.09 pmol h-1 oocyte-1
R-value (PfCRT variant E271A; E271A, CQ transport at pH 4.5 / pH 6.0): 0.61 ± 0.09
E271A transport activity pH 4.5 (PfCRT variant E271A; pH 4.5, single replicates, Fig 1d left): 1.17 pmol oocyte-1 h-1 and 1.13 pmol oocyte-1 h-1 and 0.65 pmol oocyte-1 h-1 and 0.98 pmol oocyte-1 h-1
E271A transport activity pH 6.0 (PfCRT variant E271A; pH 6.0, single replicates, Fig 1d left): 1.98 pmol oocyte-1 h-1 and 1.71 pmol oocyte-1 h-1 and 1.20 pmol oocyte-1 h-1 and 2.10 pmol oocyte-1 h-1 and 1.74 pmol oocyte-1 h-1
Activity at pH 4.5 (PfCRT variant E207K; [1]): 1.91 ± 0.10 pmol h-1 oocyte-1
Activity at pH 6.0 (PfCRT variant E207K; [1]): 2.34 ± 0.24 pmol h-1 oocyte-1
R-value (PfCRT variant E207K; E207K, CQ transport at pH 4.5 / pH 6.0): 0.83 ± 0.04
E207K transport activity pH 4.5 (PfCRT variant E207K; pH 4.5, individual replicates, Fig 6b): 2.09 pmol oocyte-1 h-1 and 1.67 pmol oocyte-1 h-1 and 1.96 pmol oocyte-1 h-1
E207K transport activity pH 6.0 (PfCRT variant E207K; pH 6.0, individual replicates, Fig 6b): 2.92 pmol oocyte-1 h-1 and 1.97 pmol oocyte-1 h-1 and 2.13 pmol oocyte-1 h-1
E207K R-value (PfCRT variant E207K; ratio of activity pH 4.5 / pH 6.0): 0.72 and 0.85 and 0.92
